The test system of series [1] is experimental autoimmune uveitis. In words: Experimental autoimmune uveitis (EAU) model.
Method: Animal Experimental Autoimmune Uveitis Model. Experimental autoimmune uveitis (EAU) is induced in female Lewis rats maintained on a folate-deficient diet (Harlan Teklad, Indianapolis, Ind.). On Day 0, the animals are immunized subcutaneously with 25 μg of bovine S-Ag PDSAg peptide formulated with Freund's incomplete adjuvant containing 0.5 mg of grounded M. Tuberculosis H37Ra. Purified pertussis toxin (PT) is given at a dosage of 1 μg per animal on the same day via intraperitoneal injection. The severity of uveitis in each eye is assessed by a qualitative visual score system: 0=No disease, eye is translucent and reflects light (red reflex); 0.5 (trace)=Dilated blood vessels in the iris, 1=Engorged blood vessels in iris, abnormal pupil contraction; 2=Hazy anterior chamber, decreased red reflex; 3=Moderately opaque anterior chamber, but pupil still visible, dull red reflex; and 4=Opaque anterior chamber and obscured pupil, red reflex absent, proptosis. This assessment yields a maximum uveitis score of 8 per animal.
All treatments start on day 8 after EAU induction. The animals in the EAU control group are untreated. […] The uveitis score and animal body weight are recorded for each animal at predetermined frequencies. The clinical severity of EAU is monitored on a daily basis using an ophthalmoscope and graded on a scale of 0 to 4 per eye with a maximum possible score of 8 per animal. […]
Series [2] concerns experimental autoimmune encephalomyelitis. The series is described as follows: Autoimmune encephalomyelitis (EAE) model. It is filed as in vivo, rats. The procedure:
METHOD. Autoimmune Encephalomyelitis (EAE) Model. EAE is induced in rats by immunization against 25 μg of guinea pig myelin basic protein (MBP) formulated with CFA containing 1 mg of grounded Mycobacterium tuberculosis H37Ra. Pertussis toxin is given intraperitoneally (1 μg/rat) to enhance the organ-specific autoimmunity. Starting 8 days after induction, rats are divided into […]: (1) untreated control (n=8), (2) test compound (n=7), and (3) test compound plus competitor compound (n=7), such as EC0923 competition. All treatments start on day 8 after EAE induction. The animals in the EAE control group are left untreated. […] The clinical severity of EAE is monitored on a daily basis and graded on a scale of 0 to 5 per animal. The clinical signs of ascending paralysis of EAE rats are divided into a 0-5 scale: 0=No disease, 0.5=distal limp tail, 1=limp tail, 2=mild paraparesis; ataxia-weakened hind limbs, 3=moderate paraparesis; hind limbs paresis, 4=complete hind limb paralysis, 5=complete hind limb paralysis and incontinence (euthanasia). On day 16, the animals are euthanized and brain and spinal cords are fixed in formalin for histology.

The subject of a further series is RAW264.7 macrophages. The series is described as follows: XTT cell viability assay on RAW264.7 macrophages. It counts as cell-based, murine. The protocol: METHOD. Inhibition of Cellular DNA Synthesis. The compounds described herein are evaluated using an in vitro cytotoxicity assay that predicts the ability of the drug to inhibit the growth of folate receptor-positive cells, such as KB cells, RAW264.7 macrophages, and the like. It is to be understood that the choice of cell type can made on the basis of the susceptibility of those selected cells to the drug that forms the conjugate. The test compounds are comprised of folate linked to a respective chemotherapeutic drug, as prepared according to the processes described herein. The test cells are exposed to varying concentrations of folate-drug conjugate, and also in the absence or presence of at least a 100-fold excess of folic acid to assess activity as being specific to folate receptor mediation.
EXAMPLE. […] The anti-proliferative activity of EC1669 is measured in a XTT cell viability assay (FIG. 2) on RAW264.7 cells after a 2-h exposure and a total of 72 h incubation.
RAW264.7 macrophages are susceptible to the drug forming the EC1669 conjugate, aminopterin. The cell viability is assessed by adding XTT (2,3-bis(2-methoxy-4-nitro-5-sulfo-phenyl)-2H-tetrazolium-5-carboxanilide) following the manufacturer's instructions. […] The observed anti-proliferative effect was 100% competable in the presence of 100-fold excess folic acid (FA), indicating a FR-specific mode of action for EC1669.
(Tetrazolium assays rely on reduction of a dye to a coloured formazan, in cell work by metabolically active cells.)

In the case of `N=c1[nH]c(N)nc2ncc(CNc3ccc(C(=O)N[C@@H](CCC(=O)NNC(=O)OCCSSC[C@@H](NC(=O)[C@H](CCC(=O)NC[C@H](O)[C@@H](O)[C@H](O)[C@H](O)CO)NC(=O)[C@@H](CCC(=O)O)NC(=O)[C@H](CCC(=O)NC[C@H](O)[C@@H](O)[C@H](O)[C@H](O)CO)NC(=O)[C@@H](CCC(=O)O)NC(=O)[C@H](CCC(=O)NC[C@H](O)[C@@H](O)[C@H](O)[C@H](O)CO)NC(=O)CC[C@H](NC(=O)c4ccc(NCc5cnc6nc(N)[nH]c(=O)c6n5)cc4)C(=O)O)C(=O)O)C(=O)O)cc3)nc12` [EC1669], the “symptoms of EAU (uveitis score)” value in series [1] (250 nmol/kg s.c. q2d, five doses from day 8) was “effectively reduces the symptoms of EAU”. The “treatment-related weight loss / whole animal toxicity” value in series [1] (rat, in vivo) is listed as “does not cause whole animal toxicity”. The “therapeutic effect with folate receptor competitor EC0923” value in series [2] (excess EC0923) is “blocked”. Further, in series [2] (s.c. every other day from day 8), the “efficacy against EAE (clinical score)” value is on record as “effectively suppresses the neurological symptoms”. For the same molecule, in series [2] (when dosed alone), the treatment-related weight loss entry is “not observed”. In addition, in the series with RAW264.7 macrophages (2-h exposure, total of 72 h incubation, read-out: relative IC50, inhibition of cell proliferation), the IC50 was around 1.2 nM. The “anti-proliferative effect competable by folic acid” value in the series on RAW264.7 macrophages (100-fold excess folic acid) was found to be 100%.

(Values after US20200121801A1, “DRUG DELIVERY CONJUGATES CONTAINING UNNATURAL AMINO ACIDS AND METHODS FOR USING” (priority 2012, published 2020).)
